Laboratory results as given in paper PMC3049581, “Development and evaluation of human AP endonuclease inhibitors in melanoma and glioma cell lines” (British Journal of Cancer, 2011).
“Also recorded” adds a separate entry of the source. Where two headings read alike, the source gives them in different places. Values belong to the compound of their own block, whether it stands above or below them.

Columns and labels:
[1] = tested on: SK-Mel30 melanoma cell line; assay: MTS assay, potentiation of cytotoxic agents; type: cell-based; conditions: inhibitor 10 μM
Description: (§1) MeWo, SKMel and MM418 melanoma cancer cell line were grown in RPMI culture medium (supplemented with penicillin 0.06 g l^−1, streptomycin 0.1 g l^−1 pH 7.0, 10% foetal bovine serum (FBS, PAA Cell Culture Company, Yeovil, Somerset, UK). U89 MG and SNB-19 glioma cell lines were grown in DMEM (supplemented with penicillin 0.06 g l^−1, streptomycin 0.1 g l^−1 pH 7.0, 10% foetal bovine serum (FBS, PAA Cell Culture Company). HUVEC endothelial cells were grown in a special media (199 Media+HAMS F12), and supplemented with 20% heat-inactivated foetal calf serum, 1% Hepes, 1% Glutamine, 12.5 μg Human EGF, 625 ng of Human bFGF, 3750 units of Heparin, penicillin 0.06 g l^−1, and streptomycin 0.1 g l^−1) Only cultures with a plating efficiency of over 70% were used for analyses.
(§2) To evaluate intrinsic cytotoxicity and to evaluate the potentiation of toxicity of cytotoxic agents by APE1 inhibitors, MTS assays were performed as per the manufacturer's recommendation (Promega, Southampton, UK). Briefly, 2000 cells per well (in 200 μl of medium) were seeded into a 96-well plate. For HUVEC cells, 5 μl of 2% type 2 gelatine (Sigma) was added to the wells and the plates were preincubated for 20 min at 37°C before seeding of cells. For intrinsic cytotoxicity assessments, cells were incubated with varying concentrations of APE1 inhibitors and the MTS assay was performed on day 5. […] Non-radioactive cell proliferation assay was conducted as described previously.

U89MG glioma cell line = assay: MTS assay, potentiation of cytotoxic agents; type: cell-based; conditions: inhibitor 10 μM
Description: as §1, §2

Human APE1 = biological target: T1, Human APE1 (Homo sapiens, UniProt P27695); assay: Fluorescence-based AP site cleavage assay; type: biochemical; conditions: APE1 50 nM, wild type
T1 construct: purchased New England Biolabs
T1 sequence (P27695 whole entry): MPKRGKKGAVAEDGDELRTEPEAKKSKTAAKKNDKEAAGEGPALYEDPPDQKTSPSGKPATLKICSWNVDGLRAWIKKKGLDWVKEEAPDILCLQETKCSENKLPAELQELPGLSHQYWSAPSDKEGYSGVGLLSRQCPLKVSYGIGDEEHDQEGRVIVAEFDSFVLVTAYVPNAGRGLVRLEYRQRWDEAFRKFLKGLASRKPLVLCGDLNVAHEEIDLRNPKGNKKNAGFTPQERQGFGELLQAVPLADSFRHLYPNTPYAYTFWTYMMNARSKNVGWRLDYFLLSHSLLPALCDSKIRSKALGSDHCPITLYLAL
Description: (§3) A fluorescence-based AP site cleavage assay was performed as described previously with slight modifications ([Madhusudan et al, 2005]). Briefly, APE1 (50 nM) (New England Biolabs) was incubated in a buffer system consisting of 50 mM Tris-HCl, pH 8.0, 1 mM MgCl2, 50 mM NaCl, 2 mM DTT at 37°C for 10 min. 5′-F-GCCCCCXGGGGACGTACGATATCCCGCTCC-3′ and its complementary Q-labelled oligonucleotide (see above) were annealed in a buffer containing 100 μM Tris-HCl, 50 mM NaCl and 1 μM EDTA. AP-site cleavage was initiated by addition of the annealed substrate (25 nM) to the reaction mix. Fluorescence readings were taken at 5 min intervals during 30 min incubation at 37°C using an Envision Multilabel reader from Perkins Elmer (Cambridge, UK) with a 495 nm excitation and a 512 nm emission filter. If the DNA is cleaved at the abasic site at position 7 from the 5′-end by APE1, the 6-mer fluorescein-containing product will dissociate from its complement by thermal melting. As a result, the quenching effect of the 3′ dabcyl (which absorbs fluorescein fluorescence when in close proximity) is lost, and APE1 activity is measured indirectly as an increase in fluorescence signal (Figure 2A). Similar assays were developed for monitoring the AP endonuclease activity of endonuclease IV using a buffering system containing 10 mM HEPES-KOH, pH 7.4, 100 mM KCl and 60 ng of endonuclease IV (Trevigen, Abingdon, UK). The final DMSO concentration was maintained at 1.2% in all assays.
(§4) APE1 was incubated with the candidate inhibitors at 100 μM (final DMSO concentration, 1.2%) before initiating the AP site cleavage assay described in the previous section. […] In addition, screening of potential inhibitors for their specificity (at 100 μM concentration) was performed using endonuclease IV cleavage assays.
(§5) To estimate IC50 for APE1 inhibition, the ability of the compounds to inhibit APE1 at a range of concentrations (10 nM–100 μM) were evaluated in black 384-well plates. The reactions were set up as before and fluorescence intensity was measured every 5 min for 30 min following reaction initiation. Using the initial rate values from the assay, percent activity was calculated for each sample relative to a negative DMSO only control. The data was fitted to a sigmoidal dose-response model using Graphpad Prism 3.0 (GraphPad Software, La Jolla, CA, USA) and IC50 values were determined using the formula: % Activity=100/(1+10^(log[I]−log IC 50)).

HUVEC endothelial cells = assay: MTS assay, toxicity in non-cancer cells; type: cell-based; conditions: compared with SK-Mel30 and U89MG
Description: as §1
To evaluate intrinsic cytotoxicity and to evaluate the potentiation of toxicity of cytotoxic agents by APE1 inhibitors, MTS assays were performed as per the manufacturer's recommendation (Promega, Southampton, UK). Briefly, 2000 cells per well (in 200 μl of medium) were seeded into a 96-well plate. For HUVEC cells, 5 μl of 2% type 2 gelatine (Sigma) was added to the wells and the plates were preincubated for 20 min at 37°C before seeding of cells. For intrinsic cytotoxicity assessments, cells were incubated with varying concentrations of APE1 inhibitors and the MTS assay was performed on day 5. […]

[2] = biological target: T2, D148E polymorphic variant of APE1 (Homo sapiens, UniProt P27695, D148E); assay: Fluorescence-based AP site cleavage assay, D148E polymorph; type: biochemical
T2 construct: made in house
T2 sequence (P27695 whole entry D148E): as the sequence (P27695 whole entry) above, with D148E counted along it
Description: as §3
as §5, with “The data was fitted to a sigmoidal dose-response model using Graphpad Prism 3.0 (GraphPad Software, La Jolla, CA, USA) and IC50 values were determined using the formula: % Activity=100/(1+10^(log[I]−log IC 50)).” left out

U89MG cells = assay: Aldehyde reactive probe assay, genomic AP sites; type: cell-based
Description: AP sites were quantified as described previously ([Madhusudan et al, 2005]). Genomic DNA was extracted from a pellet of 1 × 10^6 cells using the guanidine/detergent lysis method. Briefly, 0.5 ml of DNAzol (Helena Biosciences, Gateshead, UK) was added to the pellet and the cell lysate was gently passed several times through a pipette. The resultant viscous solution was centrifuged at 10 000 g for 10 min at 25°C. DNA was precipitated from the supernatant using 0.25 ml of 100% ethanol by gently inverting the tube 5–8 times at room temperature for 1–3 min. The DNA was washed twice in 0.4 ml of 75% ethanol. The DNA was then solubilized in TE buffer (pH 8.0), and the final concentration was adjusted to 100 μg ml^−1 (using a Gene Quant pro spectrophotometer). AP-site determinations were performed on the genomic DNA using an aldehyde reactive probe assay kit using the protocol provided by the manufacturer (BioVision Research Products, Mountainview, CA, USA). Untreated cells were compared with cells exposed to either MMS alone, APE1 inhibitor alone or combination of MMS and APE1 inhibitor. DNA was extracted at 90 min and AP site quantified as described previously. All experiments were performed in triplicate.

[3] = biological target: T2, D148E polymorphic variant of APE1; assay: Radiolabelled oligonucleotide-based APE1 cleavage assay, D148E vs wild type; type: biochemical; conditions: data not shown
Description: This basic assay was performed as described previously ([Madhusudan et al, 2005]). Briefly, a radiolabelled uracil-containing oligonucleotide (5′-CTCGCAAGUGGGTACCGA-3′) was annealed to a complementary oligonucleotide. […] AP site cleavage reaction consisted of 50 nM APE1 and 0.75 ng reduced AP site double-stranded oligonucleotide incubated at 37°C for 1 h. The sample was resolved on a 15% TBE Criterion Pre Cast Gel (Bio-Rad, Hemel Hempstead, Herts, UK) and the radiolabelled substrate and reaction products were visualised using a phosphorImager (Molecular Dynamics, Buckinghamshire, UK).

[4] = biological target: T3, AP endonuclease activity of HeLa whole-cell extracts (WCE) (Homo sapiens, UniProt P27695); assay: Whole-cell extract AP-site cleavage assay; type: biochemical
T3 construct: incubated at 100 μM concentrations with 30 ng of HeLa WCE at room temperature; endogenous in cells; host or cells: HeLa whole-cell extract
T3 sequence (P27695 whole entry): as the sequence (P27695 whole entry) above
Description: The supernatant WCE was retained, the protein concentration determined using the Bio-Rad Bradford reagent, and aliquots were stored at −80°C. AP endonuclease activity assays using 18-mer radiolabelled oligonucleotide substrates (see above) were performed. In brief, all potential APE1 inhibitors were incubated at 100 μM concentrations with 30 ng of HeLa WCE at room temperature for 15 min in incision buffer consisting of 50 mM Tris-HCl, pH 8, 1 mM MgCl2, 50 mM NaCl and 2 mM DTT. After incubation, 0.5 pmol ^32P-radiolabeled THF-containing 18-mer double-stranded DNA substrate was added. […] The radiolabeled substrate and product were separated on a standard polyacrylamide-denaturing gel and quantified by phosphorimager analysis.

E. coli endonuclease IV = biological target: T4, E. coli endonuclease IV (Escherichia coli, UniProt P0A6C1); assay: Fluorescence-based endonuclease IV cleavage assay (counter-screen); type: biochemical; conditions: tested at 100 μM
T4 construct: purchased Trevigen
Description: as §3, §4

melanoma cell lines = assay: MTS assay, intrinsic cytotoxicity; type: cell-based; conditions: 120 h, MTS day 5, read-out: GI50 (cell growth inhibition)
Description: as §1, §2

glioma cell lines = assay: MTS assay, intrinsic cytotoxicity; type: cell-based; conditions: 120 h, MTS day 5, read-out: GI50 (cell growth inhibition)
Description: as §1, §2

[5] = tested on: melanoma and glioma cell lines; assay: MTS assay, potentiation of cytotoxic agents (other inhibitors, data not shown); type: cell-based; conditions: relatively non-toxic inhibitor concentration
Description: as §1, §2

[6] = tested on: melanoma and glioma cell lines; assay: MTS assay, intrinsic cytotoxicity; type: cell-based; conditions: 120 h, MTS assay on day 5, read-out: GI50 (cell growth inhibition)
Description: as §1, §2

[7] = 30 ng HeLa WCE, read-out: WCE Inhibition (whole-cell extracts AP site cleavage inhibition)

Compound: Cc1ccc(-c2nc(S(=O)(=O)c3ccccc3)c(SCC(=O)Nc3ccc(F)cc3)o2)cc1 [Compound 4, N-(4-fluorophenyl)-2-(4-phenylsulfonyl-2-(p-tolyl)oxazol-5-yl) sulfanyl-acetamide]
potentiation of cytotoxicity of MMS [1]: Potentiation | potentiation of cytotoxicity of doxorubicin [1]: did not potentiate | potentiation of cytotoxicity of temozolomide [1]: Potentiation | potentiation of cytotoxicity of MMS (U89MG glioma cell line): Potentiation; also recorded: significantly potentiated | potentiation of cytotoxicity of doxorubicin (U89MG glioma cell line): did not potentiate | potentiation of cytotoxicity of temozolomide (U89MG glioma cell line): Potentiation; also recorded: significantly potentiated | IC50 (Human APE1): 11 µM | toxicity to HUVEC cells (HUVEC endothelial cells): relatively nontoxic | IC50 ([2]; D148E polymorph, 50 nM protein, read-out: IC50 for APE1 inhibition, D148E protein): 5.56 µM | reduction of IC50 for D148E protein compared with wild type ([2]; D148E vs wild type): 50.5% | preferential inhibitory activity towards D148E compared with wild type ([2]; fluorescence or radiolabelled assays): D148E was more sensitive to inhibition | AP site content in genomic DNA, combination with MMS (U89MG cells; 10 μM inhibitor + MMS 600 μM, 90 min): increased AP site content | AP site accumulation in genomic DNA, inhibitor alone (U89MG cells; 10 μM, DNA extracted at 90 min, vs untreated cells): accumulated AP sites | preferential inhibitory activity towards D148E protein, radiolabelled assay [3]: confirmed | inhibition at 100 µM [4, 7]: > 75% | inhibition of AP site cleavage in WCE assay ([4]; 100 μM, HeLa WCE): > 90% | inhibition at 100 µM ([4]; HeLa WCE, read-out: inhibition of AP site cleavage in WCE assay): ~93% | Endo IV inhibition (E. coli endonuclease IV): no inhibition and None | GI50 (melanoma cell lines): 20 µM | GI50 (glioma cell lines): 17 µM

Compound: O=C(CCCn1c(SCC(=O)Nc2nccs2)nc2ccsc2c1=O)NCc1ccc2c(c1)OCO2 [Compound 5, N-(benzo(1,3)dioxol-5-ylmethyl)-4-(2-oxo-4-(thiazol-2-ylcarbamoylmethylsulfanyl)-9-thia-3,5-diazabicyclo(4.3.0)nona-4,7,10-trien-3-yl)-butanamide]
IC50 (Human APE1): 12 µM | potentiation of cytotoxicity of alkylating agents [5]: Potentiation of cytotoxicity was also demonstrated | inhibition at 100 µM [4, 7]: 50 to 75% | Endo IV inhibition (E. coli endonuclease IV): None | GI50 [6]: 14 µM

Compound: O=C(COc1ccc2ccccc2c1)Nc1ccc(O)c(-c2nc3ccccc3o2)c1 [Compound 2, N-(3-benzooxazol-2-yl-4-hydroxy-phenyl)-2-(2-naphthyloxy)acetamide]
IC50 (Human APE1): 25 µM | potentiation of cytotoxicity of alkylating agents [5]: Potentiation of cytotoxicity was also demonstrated | inhibition at 100 µM [4, 7]: 50 to 75% | Endo IV inhibition (E. coli endonuclease IV): None | GI50 [6]: 50 µM

IC50 (Human APE1): 3 µM | inhibition of AP site cleavage in WCE assay ([4]; 100 μM, HeLa WCE, listed as compound 3, 100 µM): no effect
Compound: O=C(OCC(=O)N1NC(c2ccc3ccccc3c2)=CC1c1ccccc1)c1ccc([N+](=O)[O-])s1 (stereo not drawn) [Compound 3, (3-(2-naphthyl)-5-phenyl-2,5-dihydropyrazol-1-yl) carbonylmethyl 5-nitrothiophene-2-carboxylate]
potentiation of cytotoxicity of alkylating agents [5]: did not shown any potentiation | inhibition of AP site cleavage in WCE assay ([4]; 100 μM, HeLa WCE): no activity; also recorded: did not inhibit | GI50 [6]: 1 µM

Compound: N#CC(C(=O)c1cc2ccccc2o1)c1nc2ccccc2s1 (stereo not drawn) [Compound 7, 3-benzofuran-2-yl-2-benzothiazol-2-yl-3-oxo-propanenitrile]
IC50 (Human APE1): 2 µM | potentiation of cytotoxicity of alkylating agents [5]: did not show any potentiation | inhibition at 100 µM [4, 7]: 50 to 75% | Endo IV inhibition (E. coli endonuclease IV): complete inhibition and yes | Endo IV inhibition (E. coli endonuclease IV; listed as compound 7): blocked endonuclease IV activity | GI50 [6]: 40 µM

Compound: O=C(O)c1cc2cc(F)ccc2[nH]1 [Compound 1, 5-fluoro-1H-indole-2-carboxylic acid]
IC50 (Human APE1): 10 µM | potentiation of cytotoxicity of alkylating agents [5]: not | inhibition at 100 µM [4, 7]: < 50% | Endo IV inhibition (E. coli endonuclease IV): None | GI50 [6]: > 300 µM

Compound: O=C(CSc1nc2ccccc2s1)CSc1nc2ccccc2s1 [Compound 6, 1,3-bis(1,3-benzothiazol-2-ylthio)acetone]
IC50 (Human APE1): 3 µM | potentiation of cytotoxicity of alkylating agents [5]: Potentiation of cytotoxicity was also demonstrated | WCE Inhibition (whole-cell extracts AP site cleavage inhibition) ([4]; 100 μM, 30 ng HeLa WCE): Strong | Endo IV inhibition (E. coli endonuclease IV): None | GI50 [6]: 50 µM
